{"source": "patent US9968097B2", "about": "(priority 2012, dated 2018)", "assay_type_in_all_cases": "in vivo", "key": {"[1]": {"system": "Phytophthora infestans", "settings": "tomatoes, preventive, evaluated 3 days after inoculation"}, "[2]": {"system": "Sphaerotheca fuliginea", "experiment": "Sphaerotheca test (cucumbers)/preventive", "settings": "preventive, evaluated 7 days after inoculation", "text": "Sphaerotheca Test (Cucumbers)/Preventive"}, "[3]": {"system": "Alternaria solani", "experiment": "Alternaria test (tomatoes)/preventive", "settings": "preventive, evaluated 3 days after inoculation", "text": "Alternaria Test (Tomatoes)/Preventive"}, "[4]": {"system": "Botrytis cinerea", "experiment": "Botrytis test (beans)/preventive", "settings": "10 ppm a.i., preventive, lesion size 2 days after inoculation", "text": "Botrytis Test (Beans)/Preventive"}, "[5]": {"system": "Venturia inaequalis", "experiment": "Venturia test (apples)/preventive", "settings": "100 ppm a.i., preventive, evaluated 10 days after inoculation", "text": "Venturia Test (Apples)/Preventive"}}, "note": "Structures can show the parent of a compound that is named as a salt. Where two headings read alike, the source gives them in different places.", "data": [{"compound": "CCCOC(=O)NCCCN(C)C", "note": "[F220 propamocarb-HCl, propamocarb hydrochloride]", "values": [{"measurement": "Efficacy in % found", "setting": "[1]; 400 ppm a.i.", "value": 3, "unit": "%"}, {"measurement": "Efficacy in % found", "setting": "[2]; 400 ppm a.i.", "value": 0, "unit": "%"}, {"measurement": "Efficacy in % found", "setting": "[3]; Table D1, 200 ppm a.i.", "value": 30, "unit": "%"}]}, {"compound": "N#Cc1c[nH]cc1-c1cccc2c1OC(F)(F)O2", "note": "[F248 fludioxonil, fludioxonil]", "values": [{"measurement": "Efficacy in % found", "setting": "[4]", "value": 87, "unit": "%"}, {"measurement": "Efficacy in % found", "setting": "[1]; 100 ppm a.i.", "value": 12, "unit": "%"}, {"measurement": "Efficacy in % found", "setting": "[2]; 100 ppm a.i.", "value": 83, "unit": "%"}, {"measurement": "Efficacy in % found", "setting": "[5]", "value": 0, "unit": "%"}]}, {"compound": "COCC(=O)N(c1c(C)cccc1C)C(C)C(=O)OC", "note": "(stereo not drawn) [F241 metalaxyl, metalaxyl]", "values": [{"measurement": "Efficacy in % found", "setting": "[3]; Table D2, 100 ppm a.i.", "value": 8, "unit": "%"}]}, {"compound": "metalaxyl-M (mefenoxam) [F242 mefenoxam]", "values": [{"measurement": "Efficacy in % found", "setting": "[3]; Table D2, 100 ppm a.i.", "value": 0, "unit": "%"}]}]}
